Results as given in patent US6627749B1 (University of Iowa Research Foundation, priority 1999, dated 2003).
Values after ≈ are worked out from the molar mass of the structure shown.

What was measured:
[1] = Stability of CPT standard solutions (HPLC); type: physicochemical
Method: The lactone and carboxylate forms of CPT were analyzed by HPLC using a fully-automated Shimadzu LC-10 system, equipped with a fluorescence detector, a Supelco's C-18 discovery column (15 cm×4.6 mm, 5 am Supelco Park, Bellefonte, Pa.) and a guard column. The detector was set at an excitation wavelength of 370 nm and an emission wavelength of 435 nm. The mobile phase consisted of a 73.27 (v/v) mixture of triethylamine-acetate buffer (0.1% triethylamine, adjusted with glacial acetic acid to pH 5.5) and acetonitrile. A flow rate of 1 ml/min and an injection volume of 20 μl were used in the analysis. To avoid carryover between successive injections, the injector was washed thoroughly with methanol. The standard solutions of CPT-lactone and CPT-carboxylate were made by dilution of the CPT stock solution in dimethylsulfoxide (DMSO) with 0.02M HC1 and 0.02M NaOH solutions, respectively. The analysis of the CPT-lactone was performed immediately, whereas that of CPT-carboxylate 30 min. after making the solution. Standard solutions of CPT-lactone and CPT-carboxylate were stable for two weeks at 4° C. and for 24 hours at room temperature.

[2] = In-vitro dissolution of CPT in pH 7.4 phosphate buffer (dialysis bag); type: physicochemical; settings: 0.02% Tween 80, 37° C., sink conditions
Method: The dissolution of CPT from microspheres and physical mixtures and that of free CPT was evaluated in pH 7.4 phosphate buffer solution (composition: 137 mM NaCl, 3 mM KC1, 8 mM Na2HPO4, 1 mM KH2PO4), containing 0.02% Tween 80 at 37° C. under sink conditions. Briefly, an accurately weighed amount of microspheres was suspended in the buffer medium. The suspension was placed in a dialysis bag (MWCO […], Snakeskin™) and then dialyzed against the buffer solution. 1 ml of the release medium was removed at the predetermined time intervals. To maintain the sink condition, an equal volume of the fresh buffer solution was immediately added to the release medium. The concentrations of both lactone and carboxylate forms of CPT in the release media were determined by HPLC assay.

[3] = test system: human-derived lymphoid RPMI-8402 leukemia cells; assay: Cytotoxicity, inhibition of DNA synthesis (3H-thymidine); type: cell-based; settings: lymphoid RPMI-8402 cells
Method: (§1) The cytotoxicity of free CPT and OC—(COOH 20%)/CPT microspheres was evaluated against human-derived lymphoid RPMI-8402 (FIG. 7) and myeloid THP-1 leukemia cell lines (see FIG. 6). […] The cells were diluted to 1×10^6 cells/ml in RPMI 1640 media, supplemented with 1% pen/strep, 1% glutamine, and 10% fetal calf serum, and plated in triplicate at the 2×10^5 cells/well in a 96 well plate. CPT or OC—(COOH 20%)/CPT microspheres were then added, at the equal concentrations, to the wells and the cells were incubated for 20 hours at 37° C. and in 5% CO2. Radiolabeled thymidine (0.04 μci/well) was added to each well at 20 hours and 24 hours. The cells were harvested onto a Reeves Angel 934 AH filter using a Brandel automated cell harvester. Radiolabeled DNA was then measured as disintegration per minute (dpm) by scintillation spectroscopy.

[4] = test system: human-derived myeloid THP-1 leukemia cells; assay: as above; type: cell-based; settings: myeloid THP-1 cells
Method: as §1

Row | Compound | stability of standard solution ([1]; at 4° C.) | stability of standard solution ([1]; at room temperature) [h] | T-50 (hrs), dissolution of CPT [2] [h] | ED50 [3] [µg/mL] | ED50 [4] [µg/mL]
1 | CC[C@@]1(O)C(=O)OCc2c1cc1n(c2=O)Cc2cc3ccccc3nc2-1 [CPT-lactone] | two weeks | 24 |  |  | 
2 | CCC(O)(C(=O)O)c1cc2n(c(=O)c1CO)Cc1cc3ccccc3nc1-2 (stereo not shown) [CPT-carboxylate] | two weeks | 24 |  |  | 
3 | CC[C@@]1(O)C(=O)OCc2c1cc1n(c2=O)Cc2cc3ccccc3nc2-1 [Free CPT, 20(S)-camptothecin] |  |  | 118.6 | 0.025 (≈ 0.0718 µM) | 0.75 (≈ 2.15 µM)
